Test results reported in PubChem BioAssay (NCI).
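Briefly, cells in 96-well plates were exposed to five compound concentrations for 48 h, and endpoints were estimated by linear interpolation. GI50 marks 50% less growth. TGI: concentration producing complete growth inhibition.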

Experiments:
Test in all cases: inhibition of tumour cell growth, NCI panel, 48 h
[1] = system: 786-0 renal
[2] = system: A498 renal
[3] = system: A549 NSCLC
[4] = system: ACHN renal
[5] = system: BT-549 breast
[6] = system: CAKI-1 renal
[7] = system: CCRF-CEM leukemia
[8] = system: COLO 205 colon
[9] = system: DU-145 prostate
[10] = system: EKVX NSCLC
[11] = system: HCC-2998 colon
[12] = system: HCT-116 colon
[13] = system: HCT-15 colon
[14] = system: HL-60(TB) leukemia
[15] = system: HOP-62 NSCLC
[16] = system: HOP-92 NSCLC
[17] = system: HS 578T breast
[18] = system: HT29 colon
[19] = system: IGROV1 ovarian
[20] = system: K-562 leukemia
[21] = system: KM12 colon
[22] = system: LOX IMVI melanoma
[23] = system: M14 melanoma
[24] = system: MALME-3M melanoma
[25] = system: MCF7 breast
[26] = system: MDA-MB-231 breast
[27] = system: MDA-MB-435
[28] = system: MDA-MB-468 breast
[29] = system: MOLT-4 leukemia

`CCOc1ccc(/C=N/NC(=O)Cn2nc(Cc3ccccc3)c3onc(C)c3c2=O)cc1` showed a GI50 [1] of 5.99 µM, a TGI [1] of 17.6 µM and a GI50 [2] of 19.9 µM. The TGI [2] was > 59.6 µM, the GI50 [3] was > 100 µM and the TGI [3] was > 100 µM. For the same compound, the GI50 [4] was 11.3 µM, the TGI [4] was > 52.4 µM and the GI50 [5] was 13.5 µM. For the same compound, the TGI [5] was > 24.8 µM, the GI50 [6] was 14 µM and the TGI [6] was > 95.8 µM. For the same compound, the GI50 [7] was > 100 µM, the TGI [7] was > 100 µM and the GI50 [8] was > 100 µM. For the same compound, the TGI [8] was > 100 µM, the GI50 [9] was > 100 µM and the TGI [9] was > 100 µM. For the same compound, the GI50 [10] was > 100 µM, the TGI [10] was > 100 µM and the GI50 [11] was > 100 µM. The TGI [11] was > 100 µM, the GI50 [12] was > 100 µM and the TGI [12] was > 100 µM. The GI50 [13] was > 100 µM, the TGI [13] was > 100 µM and the GI50 [14] was > 100 µM. For the same compound, the TGI [14] was > 100 µM, the GI50 [15] was 4.4 µM and the TGI [15] was 28.4 µM. For the same compound, the GI50 [16] was 5.71 µM, the TGI [16] was 21.7 µM and the GI50 [17] was 3.57 µM. For the same compound, the TGI [17] was > 25.6 µM, the GI50 [18] was > 100 µM and the TGI [18] was > 100 µM. For the same compound, the GI50 [19] was 47.4 µM, the TGI [19] was > 100 µM and the GI50 [20] was > 100 µM. The TGI [20] was > 100 µM, the GI50 [21] was > 100 µM and the TGI [21] was > 100 µM. For the same compound, the GI50 [22] was > 100 µM, the TGI [22] was > 100 µM and the GI50 [23] was > 21.6 µM. The TGI [23] was > 100 µM, the GI50 [24] was 12 µM and the TGI [24] was > 100 µM. The GI50 [25] was > 100 µM, the TGI [25] was > 100 µM and the GI50 [26] was 8.26 µM. For the same compound, the TGI [26] was > 37.6 µM, the GI50 [27] was > 100 µM and the TGI [27] was > 100 µM. The GI50 [28] was 9.09 µM, the TGI [28] was 44.6 µM and the GI50 [29] was > 100 µM. The TGI [29] was > 100 µM.
